The results in this text go back to publication PMC7327080, “A novel 4-aminoquinazoline derivative, DHW-208, suppresses the growth of human breast cancer cells by targeting the PI3K/AKT/mTOR pathway” (Cell Death & Disease, 2020).

This test addresses mTOR (Homo sapiens, UniProt P42345). Description: in vitro mTOR kinase activity assay (inhibition curve, Fig. 5e). The class given is biochemical.

The IC50 is the concentration at which inhibition is half-maximal. Consider `COc1ncc(-c2ccc3ncnc(Nc4cnn(CCO)c4)c3c2)cc1NS(=O)(=O)c1ccc(F)cc1F` [DHW-208, 2,4-difluoro-N-(5-(4-((1-(2-hydroxyethyl)-1H-pyrazol-4-yl)amino)quinazolin-6-yl)-2-methoxypyridin-3-yl)benzenesulfonamide], for which the midpoint of inhibition, the IC50, lay at 3 nM.
